# Measurements published in PubChem BioAssay (NCI).
#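 Cultured in 96-well plates, cells were exposed to test compound for 48 hours across five concentrations. The concentration for 50% growth inhibition is given as GI50. TGI marks complete inhibition of growth.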
# How the values were obtained:
# Assay in all cases: NCI anticancer screen, dose series, 48 h
# HT29 colon = tested on: HT29 colon
# SK-MEL-28 melanoma = tested on: SK-MEL-28 melanoma
# OVCAR-8 ovarian = tested on: OVCAR-8 ovarian
# NCI/ADR-RES ovarian = tested on: NCI/ADR-RES ovarian
# SF-268 CNS = tested on: SF-268 CNS
# NCI-H226 lung = tested on: NCI-H226 lung
# OVCAR-3 ovarian = tested on: OVCAR-3 ovarian
# HL-60(TB) leukemia = tested on: HL-60(TB) leukemia
# RPMI-8226 leukemia = tested on: RPMI-8226 leukemia
# PC-3 prostate = tested on: PC-3 prostate
# HCC-2998 colon = tested on: HCC-2998 colon
# DU-145 prostate = tested on: DU-145 prostate
# SR leukemia = tested on: SR leukemia
# EKVX NSCLC = tested on: EKVX NSCLC
# SF-295 CNS = tested on: SF-295 CNS
# U251 CNS = tested on: U251 CNS
# SK-MEL-5 melanoma = tested on: SK-MEL-5 melanoma
# HS 578T breast = tested on: HS 578T breast
# HOP-62 NSCLC = tested on: HOP-62 NSCLC
# 786-0 renal = tested on: 786-0 renal
# CAKI-1 renal = tested on: CAKI-1 renal
# MALME-3M melanoma = tested on: MALME-3M melanoma
# MDA-MB-435 = tested on: MDA-MB-435
# KM12 colon = tested on: KM12 colon
# OVCAR-4 ovarian = tested on: OVCAR-4 ovarian
# BT-549 breast = tested on: BT-549 breast
# COLO 205 colon = tested on: COLO 205 colon
# NCI-H522 lung = tested on: NCI-H522 lung
# A498 renal = tested on: A498 renal
# A549 NSCLC = tested on: A549 NSCLC
# MCF7 breast = tested on: MCF7 breast
# SF-539 CNS = tested on: SF-539 CNS
# UO-31 renal = tested on: UO-31 renal
# MOLT-4 leukemia = tested on: MOLT-4 leukemia
# SNB-19 CNS = tested on: SNB-19 CNS
# HCT-116 colon = tested on: HCT-116 colon
# M14 melanoma = tested on: M14 melanoma
# SK-MEL-2 melanoma = tested on: SK-MEL-2 melanoma
# NCI-H460 lung = tested on: NCI-H460 lung
# T-47D breast = tested on: T-47D breast
# LOX IMVI melanoma = tested on: LOX IMVI melanoma
# UACC-62 melanoma = tested on: UACC-62 melanoma
# MDA-MB-231 breast = tested on: MDA-MB-231 breast
# HCT-15 colon = tested on: HCT-15 colon
# HOP-92 NSCLC = tested on: HOP-92 NSCLC
# SN12C renal = tested on: SN12C renal
# CCRF-CEM leukemia = tested on: CCRF-CEM leukemia
# SW-620 colon = tested on: SW-620 colon
# UACC-257 melanoma = tested on: UACC-257 melanoma
# IGROV1 ovarian = tested on: IGROV1 ovarian
# OVCAR-5 ovarian = tested on: OVCAR-5 ovarian
# SK-OV-3 ovarian = tested on: SK-OV-3 ovarian
# TK-10 renal = tested on: TK-10 renal
# ACHN renal = tested on: ACHN renal
# NCI-H23 lung = tested on: NCI-H23 lung
# SNB-75 CNS = tested on: SNB-75 CNS
smiles,measurement,setting,value
COCCNc1cc(NC(=O)N2CCCc3cc(CN4CCN(C)CC4=O)c(C=O)nc32)ncc1C#N,GI50,HT29 colon,> 50 µM
same,TGI,HT29 colon,> 50 µM
same,GI50,SK-MEL-28 melanoma,> 50 µM
same,TGI,SK-MEL-28 melanoma,> 50 µM
same,GI50,OVCAR-8 ovarian,> 50 µM
same,TGI,OVCAR-8 ovarian,> 50 µM
same,GI50,NCI/ADR-RES ovarian,> 50 µM
same,TGI,NCI/ADR-RES ovarian,> 50 µM
same,GI50,SF-268 CNS,> 50 µM
same,TGI,SF-268 CNS,> 50 µM
same,GI50,NCI-H226 lung,> 50 µM
same,TGI,NCI-H226 lung,> 50 µM
same,GI50,OVCAR-3 ovarian,> 50 µM
same,TGI,OVCAR-3 ovarian,> 50 µM
same,GI50,HL-60(TB) leukemia,> 50 µM
same,TGI,HL-60(TB) leukemia,> 50 µM
same,GI50,RPMI-8226 leukemia,42.4 µM
same,TGI,RPMI-8226 leukemia,> 50 µM
same,GI50,PC-3 prostate,> 50 µM
same,TGI,PC-3 prostate,> 50 µM
same,GI50,HCC-2998 colon,> 50 µM
same,TGI,HCC-2998 colon,> 50 µM
same,GI50,DU-145 prostate,> 50 µM
same,TGI,DU-145 prostate,> 50 µM
same,GI50,SR leukemia,> 50 µM
same,TGI,SR leukemia,> 50 µM
same,GI50,EKVX NSCLC,> 50 µM
same,TGI,EKVX NSCLC,> 50 µM
same,GI50,SF-295 CNS,> 50 µM
same,TGI,SF-295 CNS,> 50 µM
same,GI50,U251 CNS,> 50 µM
same,TGI,U251 CNS,> 50 µM
same,GI50,SK-MEL-5 melanoma,> 50 µM
same,TGI,SK-MEL-5 melanoma,> 50 µM
same,GI50,HS 578T breast,23.7 µM
same,TGI,HS 578T breast,> 50 µM
same,GI50,HOP-62 NSCLC,> 50 µM
same,TGI,HOP-62 NSCLC,> 50 µM
same,GI50,786-0 renal,29.5 µM
same,TGI,786-0 renal,> 50 µM
same,GI50,CAKI-1 renal,> 50 µM
same,TGI,CAKI-1 renal,> 50 µM
same,GI50,MALME-3M melanoma,> 50 µM
same,TGI,MALME-3M melanoma,> 50 µM
same,GI50,MDA-MB-435,> 50 µM
same,TGI,MDA-MB-435,> 50 µM
same,GI50,KM12 colon,> 50 µM
same,TGI,KM12 colon,> 50 µM
same,GI50,OVCAR-4 ovarian,> 50 µM
same,TGI,OVCAR-4 ovarian,> 50 µM
same,GI50,BT-549 breast,> 50 µM
same,TGI,BT-549 breast,> 50 µM
same,GI50,COLO 205 colon,27.2 µM
same,TGI,COLO 205 colon,> 50 µM
same,GI50,NCI-H522 lung,> 50 µM
same,TGI,NCI-H522 lung,> 50 µM
same,GI50,A498 renal,> 50 µM
same,TGI,A498 renal,> 50 µM
same,GI50,A549 NSCLC,> 50 µM
same,TGI,A549 NSCLC,> 50 µM
same,GI50,MCF7 breast,40.4 µM
same,TGI,MCF7 breast,> 50 µM
same,GI50,SF-539 CNS,> 50 µM
same,TGI,SF-539 CNS,> 50 µM
same,GI50,UO-31 renal,> 50 µM
same,TGI,UO-31 renal,> 50 µM
same,GI50,MOLT-4 leukemia,> 50 µM
same,TGI,MOLT-4 leukemia,> 50 µM
same,GI50,SNB-19 CNS,> 50 µM
same,TGI,SNB-19 CNS,> 50 µM
same,GI50,HCT-116 colon,25.6 µM
same,TGI,HCT-116 colon,> 50 µM
same,GI50,M14 melanoma,> 50 µM
same,TGI,M14 melanoma,> 50 µM
same,GI50,SK-MEL-2 melanoma,36.6 µM
same,TGI,SK-MEL-2 melanoma,> 50 µM
same,GI50,NCI-H460 lung,> 50 µM
same,TGI,NCI-H460 lung,> 50 µM
same,GI50,T-47D breast,46.5 µM
same,TGI,T-47D breast,> 50 µM
same,GI50,LOX IMVI melanoma,> 50 µM
same,TGI,LOX IMVI melanoma,> 50 µM
same,GI50,UACC-62 melanoma,> 50 µM
same,TGI,UACC-62 melanoma,> 50 µM
same,GI50,MDA-MB-231 breast,44.8 µM
same,TGI,MDA-MB-231 breast,> 50 µM
same,GI50,HCT-15 colon,33.1 µM
same,TGI,HCT-15 colon,> 50 µM
same,GI50,HOP-92 NSCLC,1.59 µM
same,TGI,HOP-92 NSCLC,21.6 µM
same,GI50,SN12C renal,> 50 µM
same,TGI,SN12C renal,> 50 µM
same,GI50,CCRF-CEM leukemia,> 50 µM
same,TGI,CCRF-CEM leukemia,> 50 µM
same,GI50,SW-620 colon,> 50 µM
same,TGI,SW-620 colon,> 50 µM
same,GI50,UACC-257 melanoma,> 50 µM
same,TGI,UACC-257 melanoma,> 50 µM
same,GI50,IGROV1 ovarian,> 50 µM
same,TGI,IGROV1 ovarian,> 50 µM
same,GI50,OVCAR-5 ovarian,> 50 µM
same,TGI,OVCAR-5 ovarian,> 50 µM
same,GI50,SK-OV-3 ovarian,> 50 µM
same,TGI,SK-OV-3 ovarian,> 50 µM
same,GI50,TK-10 renal,> 50 µM
same,TGI,TK-10 renal,> 50 µM
same,GI50,ACHN renal,23 µM
same,TGI,ACHN renal,> 50 µM
same,GI50,NCI-H23 lung,> 50 µM
same,TGI,NCI-H23 lung,> 50 µM
same,GI50,SNB-75 CNS,16 µM
same,TGI,SNB-75 CNS,> 50 µM
